In general, CC50 refers to the concentration at which the toxic effect on the cells reaches its halfway point. Broadly, the EC50 is the concentration at which the effect is half-maximal. As usually defined, the IC50 is the concentration at which inhibition is half-maximal.

Data set [1] in a line: Cytotoxicity against human HEp-2 cells assessed as reduction in cell viability incubated for 48 hrs by MTT assay. The class given is toxicity, cell-based. In general terms: Tetrazolium assays rely on reduction of a dye to a coloured formazan, in cell work by metabolically active cells.
In data set [2] the test system is Respiratory syncytial virus. Nature of the data set: Antiviral activity against Respiratory syncytial virus infected in human HEp-2 cells assessed as inhibition of virus-induced cytopathic effect measured after 6 days by CellTiter-Glo assay. The class given is functional, organism-based. Particulars: HEp-2, 144 h.
Data set [3] in a line: Selectivity index, ratio of CC50 for cytotoxicity against human HEp-2 cells to EC50 for antiviral activity against Respiratory syncytial virus infected in human HEp-2 cells. The data set is classed as toxicity, cell-based. Particulars: read-out: Ratio CC50/EC50.
The test system of another data set is ECa-109 cell line. In words: Cytotoxicity against human EC109 cells assessed as reduction in cell growth incubated for 48 hrs by MTT assay. The data set is classed as functional, cell-based. Particulars: ECa-109, 48 h.
The subject of a further data set is EC9706. In words: Cytotoxicity against human EC9706 cells assessed as reduction in cell growth incubated for 48 hrs by MTT assay. The class given is functional, cell-based. The following applies: EC9706, 48 h.
The subject of a further data set is MGC-803. Nature of the data set: Cytotoxicity against human MGC-803 cells assessed as reduction in cell growth incubated for 48 hrs by MTT assay. Particulars: MGC-803, 48 h. The class given is functional, cell-based.

`NC(=O)c1ncn([C@@H]2O[C@H](CO)[C@@H](O)[C@H]2O)n1` [RIBAVIRIN]: in data set [1], the cytotoxic concentration (CC50) at 48 h was determined as 653 µM. In data set [2], the EC50 was 20.1 µM. Further, in data set [3], the selectivity ratio came to 32.5.
In the case of `CC(=O)O[C@H]1CC[C@@]2(C)C(=CC[C@@H]3[C@@H]2CC[C@]2(C)c4nc(N)c(C#N)cc4C[C@@H]32)C1`, the concentration for half-maximal inhibition (IC50) in the data set with ECa-109 cell line was 20.5 µM; in the data set on EC9706, 58.4 µM; in the data set on MGC-803, 16.3 µM.
Turning to `CC(=O)O[C@H]1CC[C@@]2(C)C(=CC[C@H]3[C@@H]4CC[C@H](c5cc(-c6ccnc(Br)c6)c(C#N)c(N)n5)[C@@]4(C)CC[C@@H]32)C1`, the CC50 at 48 h in data set [1] came to 539 µM. In addition, in data set [2], the 50% effective concentration (EC50) was found to be 3.13 µM. Besides, in data set [3], the selectivity ratio is 172.
The like results for `CC(=O)O[C@H]1CC[C@@]2(C)C(=CC[C@H]3[C@@H]4CC[C@H](c5cc(-c6ccccc6Cl)c(C#N)c(N)n5)[C@@]4(C)CC[C@@H]32)C1` were, in that order, 303 µM, 14.1 µM and 21.4.
The like results for `CC(=O)O[C@H]1CC[C@@]2(C)C(=CC[C@H]3[C@@H]4CC[C@H](c5cc(-c6ccccc6F)c(C#N)c(N)n5)[C@@]4(C)CC[C@@H]32)C1` were, in that order, 288 µM, 12.4 µM and 23.2.

(Values after ChEMBL document CHEMBL5329192, “Synthesis, biological activities, and future perspectives of steroidal monocyclic pyridines” (RSC Med Chem, 2023).)
